Experimental data from ChEMBL document CHEMBL1201862, “PubChem BioAssay data set” (2004).
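Five concentrations, 48 hours, 96-well plates. Here, GI50 denotes the concentration required for 50% inhibition of growth.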 The source made the active and inactive calls. No stated cut-off is given here; in the data, active = GI50 up to about 1.1 µM and inactive = higher.

Experiments:
Assay in all cases: NCI-60 cell line screen, 48 h
786-0 = test system: 786-0
A498 = test system: A498
EKVX = test system: EKVX
HCC 2998 = test system: HCC 2998
HCT-116 = test system: HCT-116
HT-29 = test system: HT-29
MDA-MB-231 = test system: MDA-MB-231
MOLT-4 = test system: MOLT-4
NCI-H460 = test system: NCI-H460
OVCAR-5 = test system: OVCAR-5
RXF 393 = test system: RXF 393
SF-295 = test system: SF-295
SK-MEL-28 = test system: SK-MEL-28
SK-MEL-2 = test system: SK-MEL-2
SK-MEL-5 = test system: SK-MEL-5
T47D = test system: T47D
UACC-257 = test system: UACC-257
BT-549 = test system: BT-549
IGROV-1 = test system: IGROV-1

SMILES	GI50 (786-0)	GI50 (A498)	GI50 (EKVX)	GI50 (HCC 2998)	GI50 (HCT-116)	GI50 (HT-29)	GI50 (MDA-MB-231)	GI50 (MOLT-4)	GI50 (NCI-H460)	GI50 (OVCAR-5)	GI50 (RXF 393)	GI50 (SF-295)	GI50 (SK-MEL-28)	GI50 (SK-MEL-2)	GI50 (SK-MEL-5)	GI50 (T47D)	GI50 (UACC-257)	GI50 (BT-549)	GI50 (IGROV-1)
CC1S/C(=N\N=C2/C(=O)Nc3ccc(Br)cc32)N(C2CCCCC2)C1=O (stereo unspecified)	2.59 µM (inactive)	3.04 µM (inactive)	4.16 µM (inactive)	4.08 µM (inactive)	2.24 µM (inactive)	8.69 µM (inactive)	2.18 µM (inactive)	5.37 µM (inactive)	3.96 µM (inactive)	14.4 µM (inactive)	3.21 µM (inactive)	3.89 µM (inactive)	6.08 µM (inactive)	1.45 µM (inactive)	40.6 µM (inactive)	3.96 µM (inactive)	21 µM (inactive)		
Clc1ccc(/C=c2\nc(-c3ccccc3)n3c2nc2ccccc23)cc1	56.8 µM (inactive)	> 100 µM (inactive)	19.7 µM (inactive)		> 100 µM (inactive)	> 100 µM (inactive)	61.5 µM (inactive)	> 100 µM (inactive)	> 100 µM (inactive)	> 100 µM (inactive)	28.7 µM (inactive)	25.5 µM (inactive)	0.0465 µM (active)	> 100 µM (inactive)	> 100 µM (inactive)		> 100 µM (inactive)	63.2 µM (inactive)	> 100 µM (inactive)
COC1(OC)CC2C(=O)N(Cc3ccccc3)C1CC2S(=O)(=O)c1ccccc1 (stereo unspecified)	> 100 µM (inactive)		> 100 µM (inactive)		> 100 µM (inactive)	> 100 µM (inactive)		> 100 µM (inactive)	> 100 µM (inactive)		> 100 µM (inactive)	> 100 µM (inactive)	> 100 µM (inactive)	> 100 µM (inactive)	> 100 µM (inactive)		> 100 µM (inactive)		> 100 µM (inactive)
C[C@@H](Cl)[C@H]1CCCN(Cc2ccc(Br)cc2)C1	> 12.5 µM (inactive)	> 12.5 µM (inactive)	> 12.5 µM (inactive)	> 12.5 µM (inactive)		> 12.5 µM (inactive)	> 12.5 µM (inactive)	> 12.5 µM (inactive)	> 12.5 µM (inactive)	> 12.5 µM (inactive)	> 12.5 µM (inactive)	> 12.5 µM (inactive)	> 12.5 µM (inactive)	> 12.5 µM (inactive)	> 12.5 µM (inactive)	> 12.5 µM (inactive)	> 12.5 µM (inactive)		> 12.5 µM (inactive)
O=C1CN(c2ccc(Cl)cc2)C(=O)CN1CCN1CC(=O)N(c2ccc(Cl)cc2)CC1=O	> 100 µM (inactive)	> 100 µM (inactive)	> 100 µM (inactive)	> 100 µM (inactive)	> 100 µM (inactive)	> 100 µM (inactive)		> 100 µM (inactive)	> 100 µM (inactive)	> 100 µM (inactive)	> 100 µM (inactive)	> 100 µM (inactive)	> 100 µM (inactive)		> 100 µM (inactive)		> 100 µM (inactive)	> 100 µM (inactive)	> 100 µM (inactive)
Cc1cc2nc3[nH]nc(N)c3nc2cc1C	> 100 µM (inactive)	> 100 µM (inactive)	31.4 µM (inactive)	> 100 µM (inactive)	> 100 µM (inactive)	> 100 µM (inactive)	> 100 µM (inactive)	> 100 µM (inactive)	> 100 µM (inactive)	> 100 µM (inactive)	32.3 µM (inactive)	> 100 µM (inactive)	> 100 µM (inactive)	> 100 µM (inactive)			> 100 µM (inactive)	> 100 µM (inactive)	> 100 µM (inactive)
CCN(CC)CCn1nc(N)c2nc3ccccc3nc21	> 100 µM (inactive)	> 100 µM (inactive)	> 100 µM (inactive)	> 100 µM (inactive)	53.8 µM (inactive)	> 100 µM (inactive)		63.7 µM (inactive)	> 100 µM (inactive)	> 100 µM (inactive)	> 100 µM (inactive)	> 100 µM (inactive)	> 100 µM (inactive)	> 100 µM (inactive)			> 100 µM (inactive)	> 100 µM (inactive)	> 100 µM (inactive)
N/N=C(\Nc1ccccc1)SCc1ccccc1	> 100 µM (inactive)	> 100 µM (inactive)		> 100 µM (inactive)	> 100 µM (inactive)	> 100 µM (inactive)	> 100 µM (inactive)	> 100 µM (inactive)	> 100 µM (inactive)	> 100 µM (inactive)	> 100 µM (inactive)	> 100 µM (inactive)	> 100 µM (inactive)	> 100 µM (inactive)	> 100 µM (inactive)		> 100 µM (inactive)	> 100 µM (inactive)	> 100 µM (inactive)
CC(C)[C@H](NC(=O)[C@@H](O)[C@H](N)Cc1ccccc1)C(=O)N[C@@H](Cc1ccccc1)C(=O)O	> 100 µM (inactive)	> 100 µM (inactive)	> 100 µM (inactive)	> 100 µM (inactive)	> 100 µM (inactive)		> 100 µM (inactive)	> 100 µM (inactive)	> 100 µM (inactive)	> 100 µM (inactive)		> 100 µM (inactive)	> 100 µM (inactive)	> 100 µM (inactive)	> 100 µM (inactive)	> 100 µM (inactive)	> 100 µM (inactive)		> 100 µM (inactive)
O=C(O)C(=Cc1ccc(-c2ccc([N+](=O)[O-])cc2)o1)C(=O)O	> 100 µM (inactive)	> 100 µM (inactive)	> 100 µM (inactive)	> 100 µM (inactive)	> 100 µM (inactive)	> 100 µM (inactive)	> 100 µM (inactive)	> 100 µM (inactive)	> 100 µM (inactive)	> 100 µM (inactive)	> 100 µM (inactive)	> 100 µM (inactive)	> 100 µM (inactive)	> 100 µM (inactive)	> 100 µM (inactive)		> 100 µM (inactive)	> 100 µM (inactive)	> 100 µM (inactive)
S=C(N/N=C(\C(=N/NC(=S)N1CCCCC1)c1ccccn1)c1ccccn1)N1CCCCC1	36.5 µM (inactive)	32.7 µM (inactive)	80 µM (inactive)	26.3 µM (inactive)	15.5 µM (inactive)	61 µM (inactive)	> 100 µM (inactive)	8.53 µM (inactive)	14 µM (inactive)	51.2 µM (inactive)	18 µM (inactive)	34.8 µM (inactive)	21.1 µM (inactive)		5.5 µM (inactive)		54.1 µM (inactive)	78.2 µM (inactive)	48.8 µM (inactive)
CC(C)C(NC(=O)C(Cc1ccccc1)NC(=O)[C@H]1CCC[C@H]1NC(=O)C(N)Cc1ccc(O)cc1)C(N)=O (stereo partly specified)	> 100 µM (inactive)	> 100 µM (inactive)	> 100 µM (inactive)	> 100 µM (inactive)	> 100 µM (inactive)	> 100 µM (inactive)	> 100 µM (inactive)	> 100 µM (inactive)	> 100 µM (inactive)	> 100 µM (inactive)	> 100 µM (inactive)	> 100 µM (inactive)	> 100 µM (inactive)	> 100 µM (inactive)	17.8 µM (inactive)	> 100 µM (inactive)	> 100 µM (inactive)		> 100 µM (inactive)
CO/C(=N\N=C\c1ccc(OC)cc1OC)c1ccncc1	> 10 µM (inactive)	> 10 µM (inactive)		> 10 µM (inactive)	> 10 µM (inactive)			> 10 µM (inactive)	> 10 µM (inactive)	> 10 µM (inactive)	> 10 µM (inactive)	> 10 µM (inactive)	> 10 µM (inactive)	> 10 µM (inactive)	> 10 µM (inactive)	> 10 µM (inactive)			> 10 µM (inactive)
C[C@H](CC[C@@H](O)C(C)(C)O)[C@H]1CC[C@@]2(C)[C@@H]3CC=C4[C@@H](CC[C@H](O)C4(C)C)[C@]3(C)C(=O)C[C@]12C [BRYODULCOSIGENIN]	38.3 µM (inactive)	> 50 µM (inactive)	21.2 µM (inactive)		22 µM (inactive)	10.8 µM (inactive)	> 50 µM (inactive)	19.5 µM (inactive)	31.1 µM (inactive)	16.8 µM (inactive)		> 50 µM (inactive)	24.2 µM (inactive)	40.7 µM (inactive)	24.7 µM (inactive)		49 µM (inactive)	23.6 µM (inactive)	> 50 µM (inactive)
c1cn[nH]c1 [PYRAZOLE]	> 10 µM (inactive)	> 10 µM (inactive)	> 10 µM (inactive)	> 10 µM (inactive)	> 10 µM (inactive)	> 10 µM (inactive)		> 10 µM (inactive)	> 10 µM (inactive)		> 10 µM (inactive)	> 10 µM (inactive)	> 10 µM (inactive)	> 10 µM (inactive)	> 10 µM (inactive)	> 10 µM (inactive)			> 10 µM (inactive)
Cn1cc(NC(=O)c2cc(NC(=O)c3cc(NC=O)cn3C)cn2C)cc1C(=O)NCCC(=N)N [STALLIMYCIN]	> 100 µM (inactive)	87.9 µM (inactive)	> 100 µM (inactive)		> 100 µM (inactive)	> 100 µM (inactive)	> 100 µM (inactive)	> 100 µM (inactive)	> 100 µM (inactive)	> 100 µM (inactive)	> 100 µM (inactive)	> 100 µM (inactive)	> 100 µM (inactive)	> 100 µM (inactive)	> 100 µM (inactive)		> 100 µM (inactive)	> 100 µM (inactive)	> 100 µM (inactive)
